# Measurements reported in patent US7807705B2, “Potent indole-3-carbinol-derived antitumor agents” (The Ohio State University Research Foundation, priority 2007, dated 2010).
# Entries after “also recorded” stand apart in the source; their conditions may differ.
# Key:
# [1] = system: LNCaP (p53+/+) androgen-responsive prostate cancer cells; test: MTT cell viability assay; assay type: cell-based, human; details: 24-h exposure
# Text: (§1) Cell Culture. LNCaP androgen-responsive (p53^+/+) and PC-3 androgen-nonresponsive (p53^−/−) human prostate cancer cells were purchased from the American Type Tissue Collection (Manassas, Va.) and cultured in RPMI 1640 medium (Gibco, Grand Island, N.Y.) supplemented with 10% fetal bovine serum (FBS; Gibco).—Normal human prostate epithelial cells (PrEC) were obtained from Cambrex Bioscience-Walkersville (Walkersville, Md.), and maintained in the vendor's recommended defined prostate epithelial growth medium. All cell types were cultured at 37° C. in a humidified incubator containing 5% CO2.
# (§2) Cell viability analysis. The effect of test agents on cell viability was assessed by using the MTT [3-(4,5-dimethylthiazol-2-yl)-2,5-diphenyl-2H-tetrazolium bromide] assay in six to twelve replicates. Cancer cells and PrECs were grown in 5% FBS-supplemented RPMI 1640 medium or 5% FBS-supplemented prostate epithelial growth medium, respectively, in 96-well, flat-bottomed plates for 24 h, and then exposed to various concentrations of test agents in the same medium for the indicated time intervals. […] Absorbance at 570 nm was determined on a plate reader.
# (§3) These agents (A1-A24) were evaluated for their ability to reduce cell viability of PC-3 (p53^−/−) androgen-nonresponsive and LNCaP (p53^+/+) androgen-responsive prostate cancer cells after 24-h exposure by MTT assay.
# [2] = system: PC-3 (p53−/−) androgen-nonresponsive prostate cancer cells; test: MTT cell viability assay; assay type: cell-based, human; details: PC-3 cells, 24-h exposure
# Text: as §1, §2, §3
# [3] = system: LNCaP cells; test: Cell proliferation by direct cell counting (Coulter counter); assay type: cell-based, human
# Protocol: (§4) Cell Proliferation. PC-3 and LNCaP cells were seeded into six-well plates at approximately 200,000 cells/well in 5% FBS-containing RPMI 1640 medium. Following a 24 h attachment period, cells were treated in triplicate with the indicated concentrations of test agent or DMSO vehicle in 5% FBS-containing RPMI-1640 medium. At different time intervals, cells were harvested by trypsinization, and numerated using a Coulter counter (Model Z1 D/T, Beckman Coulter, Fullerton, Calif.).
# (§5) In line with the cell viability data, a concentration of at least 300 μM was required for indole-3-carbinol to attain the same level of efficacy.
# [4] = system: PC-3 cells; test: as above; assay type: cell-based, human
# Protocol: as §4, §5
# [5] = NMR analysis of acid stability; assay type: physicochemical; details: CD3OD plus deuterium-labeled HCl, room temperature; indole-3-carbinol t=5 min, OSU-A9 up to 8 h
# Protocol: Nuclear magnetic resonance (NMR) analysis of acid stability. […] To each solution was added 100 μl of deuterium-labeled HCl, and NMR spectra were recorded in a 300 MHz NMR spectrometer at room temperature at different time intervals.
# Individual compounds (20 mg) were dissolved in 1 ml of deuterium-labeled methanol (CD3OD).
# [6] = system: PC-3 cells; test: Apoptosis analysis (morphology, caspase-3 activation and PARP cleavage by Western blot); assay type: cell-based, human; details: for caspase-3 activation and PARP cleavage: 48 hours, Western blot
# Protocol: Apoptosis analysis. Drug-induced apoptotic cell death was assessed by Western blot analysis of caspase-3 activation and poly-(ADP-ribose)polymerase (PARP) cleavage. […], washed with ice-cold PBS, and resuspended in lysis buffer containing 20 mM Tris-HCl, pH 8, 137 mM NaCl, 1 mM CaCl2, 10% glycerol, 1% Nonidet P-40, 0.5% deoxycholate, 0.1% SDS, 100 μM 4-(2-aminoethyl)benzenesulfonyl fluoride, leupeptin at 10 μg/mL, and aprotinin at 10 μg/mL. Soluble cell lysates were collected after centrifugation at 10,000 g for 5 min. Equivalent amounts of proteins (60-100 μg) from each lysate were resolved in 8% SDS-polyacrylamide gels. Proteins were transferred to nitrocellulose membranes, and analyzed by immunoblotting with antibodies against caspase-3 or PARP as described below.
# Drug-treated cells became shrunken, rounded, and detached from the dish.
# [7] = system: Akt, GSK3β, Bad, ERKs, JNK, p38, Bcl-2 family members, survivin, NF-kB, cyclin D1, p27, p21 in PC-3 cells; test: Immunoblotting of signaling targets in PC-3 cells; assay type: cell-based, human; details: 48 h; for expression of Bax, p27, and p21: dose-dependent
# Protocol: Immunoblotting. Biomarkers of apoptosis and signaling components associated with cell survival and growth arrest were assessed by Western immunoblotting as follows. Treated cells were washed in PBS, resuspended in SDS sample buffer, sonicated for 5 sec, and then boiled for 5 min. After brief centrifugation, equivalent amounts of proteins from the soluble fractions of cell lysates were resolved in 10% SDS-polyacrylamide gels on a Minigel apparatus, and transferred to a nitrocellulose membrane using a semi-dry transfer cell. The transblotted membrane was washed three times with TBS containing 0.05% Tween 20 (TBST). After blocking with TBST containing 5% nonfat milk for 60 min, the membrane was incubated with an appropriate primary antibody at 1:500 dilution (with the exception of anti-b-actin antibody, 1:2,000) in TBST-5% low fat milk at 4° C. for 12 h, and was then washed three times with TBST. The membrane was probed with goat anti-rabbit or anti-mouse IgG-horseradish peroxidase conjugates (1:2,500) for 90 min at room temperature, and washed three times with TBST. The immunoblots were visualized by enhanced chemiluminescence.
# Indole-3-carbinol has been reported to target an array of signaling pathways to induce apoptosis and cell cycle arrest in cancer cells. […] These targets comprised three categories of biomarkers: a) phosphorylation of signaling kinases: Akt and its downstream effector GSK3β, ERKs, JNKs, and p38; b) phosphorylation/expression of Bcl-2 family members: Bad, Bax, Bcl-2, Bcl-xL, and Mcl-1; c) expression of other apoptosis and cell-cycle regulatory proteins: survivin, NF-kB/RelA, cyclin D1, p27, and p21 (FIG. 4).
# [8] = system: androgen receptor (AR); test: Immunoblotting of AR expression in LNCaP cells; assay type: cell-based, human; details: highest doses examined (data not shown)
# [9] = system: Normal human prostate epithelial cells (PrEC); test: MTT cell viability assay; assay type: cell-based
# Text: as §1, §2, §3
# [10] = molecular target: T1, PPARγ (Homo sapiens, UniProt P37231); test: PPRE-luciferase reporter assay for PPARγ activation in PC-3 cells; assay type: cell-based; details: even at 20 μM, 24 h
# T1 construct: PC-3 cells were transfected with PPRE-X3-TK-Luc; endogenous in cells; host or cells: PC-3 cells
# T1 sequence (P37231 1-505): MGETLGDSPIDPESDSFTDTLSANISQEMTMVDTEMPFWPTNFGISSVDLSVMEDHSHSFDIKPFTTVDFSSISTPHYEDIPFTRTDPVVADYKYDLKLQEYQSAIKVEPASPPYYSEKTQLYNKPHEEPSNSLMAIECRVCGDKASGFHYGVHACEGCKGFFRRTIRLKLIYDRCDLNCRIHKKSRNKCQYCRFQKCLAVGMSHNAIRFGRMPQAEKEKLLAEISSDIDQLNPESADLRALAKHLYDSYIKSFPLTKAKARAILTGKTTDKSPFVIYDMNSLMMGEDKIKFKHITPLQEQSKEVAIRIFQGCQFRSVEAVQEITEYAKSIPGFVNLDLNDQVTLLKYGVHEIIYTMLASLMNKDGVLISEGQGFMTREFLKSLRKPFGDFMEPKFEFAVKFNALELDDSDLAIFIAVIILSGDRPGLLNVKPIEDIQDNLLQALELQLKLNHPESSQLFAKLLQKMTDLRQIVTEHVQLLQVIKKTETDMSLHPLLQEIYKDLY
# Protocol: Luciferase assay for PPARg activation. The PPRE-x3-TK-Luc reporter vector contains three copies of the PPAR-response element (PPRE) upstream of the thymidine kinase (tk) promoter-luciferase fusion gene and was kindly provided by Dr. Bruce Spiegelman (Harvard University, Cambridge, Mass.). PC-3 cells were cultured in a 100 mm plate in phenol red-free RPMI 1640 medium containing 10% FBS until the achieved 50-70% confluency, after which they were transfected with 6 μg of the plasmid using Fugene 6 (Roche, Indianapolis, Ind.) in RPMI 1640 medium. For each transfection, herpes simplex virus-thymidine kinase (HSV-TK) promoter-driven Renilla luciferase (phRL-TK) was used as an internal control for normalization. Following transfections, cells were treated as indicated, in RPMI 1640 medium containing 10% charcoal-stripped FBS. Cells were then collected into Passive Lysis Buffer (Promega), and luciferase activities in the cell lysates were determined by luminometry. All transfection experiments were carried out in triplicate plates and repeated separately at least three times.
# [11] = Maximum tolerated dose determination; assay type: in vivo, athymic nude mice; details: intraperitoneal, daily for 14 days, doses up to 25 mg/kg (tested 5, 10, 25, 50 mg/kg/day)
# [12] = Tolerability in PC-3 tumor-bearing mice (body weight, necropsy, histology, blood); assay type: in vivo, athymic nude mice; details: 10 or 25 mg/kg daily, intraperitoneal, 42 days
# Protocol: (§6) In vivo studies. […] Body weights were measured weekly.
# [13] = system: Bcl-xL; test: Intratumoral biomarker immunoblotting of PC-3 tumor homogenates; assay type: in vivo, human; details: intraperitoneal, 42 days
# Protocol: as §6
# [14] = system: cyclin D1; test: as above; assay type: in vivo, human; details: intraperitoneal, 42 days
# Protocol: as §6
# [15] = system: p27; test: as above; assay type: in vivo, human; details: intraperitoneal, 42 days
# Protocol: as §6
# [16] = system: phospho-Akt; test: as above; assay type: in vivo, human; details: intraperitoneal, 42 days
# Protocol: as §6
# [17] = system: phospho-p38; test: as above; assay type: in vivo, human; details: intraperitoneal, 42 days
# Protocol: as §6
smiles,measurement,setting,value
OCc1c[nH]c2ccccc12 [indole-3-carbinol],IC50,[1],267 µM
same,IC50,[2],512 µM
same,concentration that completely suppressed cell proliferation,[3],at least 300 μM
same,concentration that completely suppressed cell proliferation,[4],at least 300 μM
same,"chemical stability in 0.1 N HCl, CH2OH proton signal by NMR",[5],immediate shift of the CH2 signal
same,"morphological changes, light microscopy","[6]; 500 μM, 48 h",pronounced morphological changes
same,caspase-3 activation and PARP cleavage,[6],dose-dependent effect
same,phosphorylation of Akt and its substrates GSK3b and Bad,[7],dose-dependent dephosphorylation
same,"phosphorylation of ERKs, JNK, and p38",[7],increased phosphorylation
same,"expression of Bax, p27, and p21",[7],up-regulating the expression
same,AR expression,[8],neither agents had an appreciable effect
"O=[N+]([O-])c1cc(S(=O)(=O)n2cc(CO)c3ccccc32)ccc1Cl [OSU-A9, [1-(3′-nitro-4′-chlorobenzenesulfonyl)-1H-indol-3-yl]-methanol]",lower sensitivity of PrECs than the prostate cancer cells,[9]; PrEC IC50 versus PC-3 and LNCaP IC50,2.2-4.5 fold
same,IC50,"[9]; PrECs, MTT assay",9 µM
same,concentration that completely suppressed cell proliferation,[3],≥ 2.5 µM
same,concentration that completely suppressed cell proliferation,[4],≥ 2.5 µM
same,"chemical stability in 0.1 N HCl, CH2OH proton signal by NMR",[5],no appreciable change
same,PPARγ transactivation,[10],lacked appreciable activity
same,"morphological changes, light microscopy","[6]; 5 μM, 24 h",pronounced morphological changes
same,caspase-3 activation and PARP cleavage,[6],dose-dependent effect
same,apoptosis-inducing potency versus indole-3-carbinol,[6]; caspase-3 activation and PARP cleavage,100 fold
same,phosphorylation of Akt and its substrates GSK3b and Bad,[7],dose-dependent dephosphorylation
same,"phosphorylation of ERKs, JNK, and p38",[7],increased phosphorylation
same,"expression of Bax, p27, and p21",[7],up-regulating the expression
same,weight loss,[11],No apparent weight loss
same,body weight compared to vehicle-treated controls,[12],without significant loss of body weight
same,hematological and serum chemistry findings,[12],normal hematological and serum chemistry findings
same,overt toxicity / tolerability,[12],well-tolerated; also recorded: without overt signs of toxicity
same,lesions observed at necropsy,[12]; limited to peritoneal surfaces,mild to moderate amounts of fibrous adhesions
same,microscopic lesions in tissues examined,[12]; with the exception of the affected peritoneum,no treatment-associated lesions; also recorded: no significant lesions
same,reduction in intratumoral Bcl-xL,[13]; 10 mg/kg per day,34±8%
same,reduction in intratumoral Bcl-xL,[13]; 25 mg/kg per day,86±4%
same,reduction in intratumoral cyclin D1,[14]; 10 mg/kg per day,70±3%
same,reduction in intratumoral cyclin D1,[14]; 25 mg/kg per day,88±3%
same,increase in intratumoral p27,[15]; 10 mg/kg per day,1.8±0.3 fold
same,increase in intratumoral p27,[15]; 25 mg/kg per day,2.7±1.4 fold
same,reduction in intratumoral phospho-Akt compared to vehicle-treated controls,[16]; 10 mg/kg per day,83±8%
same,reduction in intratumoral phospho-Akt compared to vehicle-treated controls,[16]; 25 mg/kg per day,94±1%
same,increase in intratumoral phospho-p38,[17]; 10 mg/kg per day,9.0±3.5 fold
same,increase in intratumoral phospho-p38,[17]; 25 mg/kg per day,10.1±2.4 fold
